Test results as given in patent publication US5731334A, “Method for treating cancer using taxoid onium salt prodrugs” (priority 1995, dated 1998).

Experiments:
[1] = system: M-24 metastatic melanoma cells; experiment: XTT dye binding cytotoxicity assay, M-24; assay type: cell-based; conditions: Homo sapiens, M24; M-24, melanoma-metastatic; 72 h; read-out: IC50
Procedure: (§1) All cell lines described herein were obtained from the ATCC and maintained in media formulations as recommended by the supplier. The cell lines were tested for mycoplasma contamination prior to incubation at 37° C. in 5% carbon dioxide. Normal human dermal fibroblasts, peripheral blood lymphoblasts and mammary epithelial cells were obtained from Clonogenic Cor., San Diego, Calif. and were maintained under the above incubation conditions in special media provided by the supplier.
(§2) Antiproliferative activities of the onium salts were determined using the XTT dye binding assay. Cells were harvested with trypsin/EDTA (Irvine Scientific), washed, resuspended in the appropriate medium, and counted in a hemocytometer using Trypan Blue to determine viability. Then 10^4 cells/well were added to 96 well microtiter plates and incubated for 24 hours before addition of drug at concentrations in the range of 10^-4 to 10^-13 molar by direct addition from DMSO solutions. After 72 hours, XTT binding dye was added and incubation was continued for 4 hours. The inhibition of cell proliferation was quantified using a Molecular Devices Microplate Reader. The absorbance of XTT was measured at […]. The concentration of drug which inhibited growth of cells by 50% was calculated from duplicated determinations.

[2] = system: SK-N-SH neuroblastoma cells; experiment: XTT dye binding cytotoxicity assay, SK-N-SH; assay type: cell-based; conditions: Homo sapiens, neuroblastoma, 72 h, read-out: IC50
Procedure: as §1, §2

[3] = system: U-2511 CNS cancer cells; experiment: XTT dye binding cytotoxicity assay, U-2511; assay type: cell-based; conditions: Homo sapiens; U-2511, CNS cancer; 72 h; read-out: IC50
Procedure: as §1, §2

[4] = Stability in water, assay medium and storage solution; assay type: physicochemical
Text: used and differing ultraviolet absorption maxima between the prodrug and the drug, the stability was easily assayed using UV detection. In all the ensuing studies, the only degradation products detected were the taxoids and the pyridinone that results from the hydrolysis of the onium salts. In water, these compounds show surprising stability for up to weeks depending upon the storage conditions. […] The fraction of ethyl acetated extractable material was between 18 and 23% for all onium salts and 95% for the present compounds.
FIG. 2 illustrates the results of GTP induced polymerization and calcium chloride induced depolymerization of tubulin in the presence of taxol and the 2'- and 7-MPA substituted derivatives.

[5] = system: BT-549 breast carcinoma cells; experiment: XTT dye binding cytotoxicity assay, BT-549; assay type: cell-based; conditions: Homo sapiens; BT-549, breast carcinoma; 72 h; read-out: IC50
Procedure: as §1, §2

[6] = system: OVCAR-3 ovarian carcinoma cells; experiment: XTT dye binding cytotoxicity assay, OVCAR-3; assay type: cell-based; conditions: Homo sapiens; OVCAR-3, ovarian carcinoma; 72 h; read-out: IC50
Procedure: as §1, §2

[7] = system: intact Molt-4 cells; experiment: Competition binding of tritiated compounds to intact Molt-4 cells; design: species or system human
Procedure: The competition by nonradioactive taxol or c-2'-MPA-taxol for the binding of 1×10^-9 M tritiated compounds by intact Molt-4 cells is illustrated in FIG. 3. Tritiated taxol (Moravek Corp.) was treated with 2-fluoropyridiunium tosylate according to the method of Nicolaou et al. to yield the C-2'-MPT-^3 H-taxol. (Angew. Chem., Int. Ed. 1994: vol. 34, pp. 1583-1587.) Six well plates were incubated with 10^6 Molt-4 cells in 50 mM phosphate buffered saline (PBS) or PRPMI media to which 10^-9 M of the radiolabeled taxol or taxol onium salt was added together with increasing concentrations of nonradiolabeled compound. After 30 minutes, the cells were centrifuged, washed with PBS and 1% SDS was added. […] Alternatively, the cells may be lysed by sonication.

[8] = system: human tumor xenografts; experiment: In vivo antitumor effect (human tumor xenografts in nude mice)
[9] = Comparative toxicities (lethality) in mice; conditions: in vivo
[10] = Plasma stability and prodrug reversion (ethyl acetate extraction, HPLC); conditions: human, plasma
[11] = In vivo elimination in BALB/C mice; conditions: 24 hours after injection
Procedure: C-2'-MPA-Taxol (1 mM in 0.9% saline solution, 400 μL) was injected along with tritiated taxol at 32000 cpm into normal BALB/C mice (4 mice each) housed in metabolic cages and the urine and feces were measured periodically in a scintillation counter using Achillea scintillation fluid.
The antitumor activity of the onium salts of taxol were assessed in nude mice bearing tumors of human A-549 lung adenocarcinomas, Ovcar-3 ovarian carcinoma, and PC-3 prostate carcinoma cells. […] FIG. 5 illustrates antiproliferation results for 2'-MPA-3-thiophene-taxol (4) and 2' MPA taxol (2) for the Ovcar-3 human tumor xenograft. […] FIG. 6, summarizes the results for a PC-3, prostate tumor model study. Taxol was compared with both the 2'- and 7-substituted oxonium salts. […] Tritiated taxol and 2' MPA-taxol were used in drug elimination experiments in normal BALB/C mice. In both groups of mice of four animals each, only 4-5% of the administered radioactivity was measured in the combined urine and feces 24 hours after injection.

[12] = system: HL-60 promyelocytic leukemia cells; experiment: XTT dye binding cytotoxicity assay, HL-60; assay type: cell-based; conditions: Homo sapiens; HL-60, promyelocytic leukemia; 72 h; read-out: IC50
Procedure: as §1, §2

[13] = system: Molt-4 T-cell leukemia cells; experiment: XTT dye binding cytotoxicity assay, Molt-4; assay type: cell-based; conditions: Homo sapiens; Molt-4, T-cell leukemia; 72 h; read-out: IC50
Procedure: as §1, §2

[14] = system: HT-29 colon carcinoma cells; experiment: XTT dye binding cytotoxicity assay, HT-29; assay type: cell-based; conditions: Homo sapiens; HT-29, colon carcinoma; 72 h; read-out: IC50
Procedure: as §1, §2

[15] = system: CHO Chinese hamster ovary cells; experiment: XTT dye binding cytotoxicity assay, CHO; assay type: cell-based; conditions: Cricetulus griseus; CHO, Chinese hamster ovary (untransformed); 72 h; read-out: IC50
Procedure: as §1, §2

[16] = system: SIHA squamous carcinoma cells; experiment: XTT dye binding cytotoxicity assay, SIHA; assay type: cell-based; conditions: Homo sapiens; SIHA, squamous carcinoma; 72 h; read-out: IC50
Procedure: as §1, §2

[17] = system: PC-3 prostate carcinoma cells; experiment: XTT dye binding cytotoxicity assay, PC-3; assay type: cell-based; conditions: Homo sapiens, 72 h
Procedure: as §1, §2

[18] = system: A-549 lung carcinoma cells; experiment: XTT dye binding cytotoxicity assay, A-549; assay type: cell-based; conditions: Homo sapiens, A549; A-549, lung carcinoma; 72 h; read-out: IC50
Procedure: as §1, §2

[19] = system: HMEC mammary epithelial cells; experiment: XTT dye binding cytotoxicity assay, HMEC; assay type: cell-based; conditions: Homo sapiens, mammary epithelial cells (untransformed), 72 h, read-out: IC50
Procedure: as §1, §2

[20] = system: L-1210 leukemia cells; experiment: XTT dye binding cytotoxicity assay, L-1210; assay type: cell-based, mouse; conditions: L1210; L-1210, mouse leukemia; 72 h; read-out: IC50
Procedure: as §1, §2

## CC(=O)O[C@H]1C(=O)[C@@]2(C)[C@H]([C@H](OC(=O)c3ccccc3)[C@]3(O)C[C@H](OC(=O)[C@H](Oc4cccc[n+]4C)[C@@H](NC(=O)c4ccccc4)c4ccccc4)C(C)=C1C3(C)C)[C@]1(OC(C)=O)CO[C@@H]1C[C@@H]2O [Compound 2]
[1]
  IC50: 0.35 nM
[2]
  IC50: 3.19 nM
[3]
  IC50: 860 nM
[4]; 1-2% Tween #80 or Tween #20 with or without ethyl alcohol
  storage stability: stable and may stored without significant loss
[4]; HPLC analysis
  stability under the assembly-disassembly conditions: completely stable
[5]
  IC50: 5.72 nM
[6]
  IC50: 7.49 nM
[7]; calculated from slopes of linear portions of curves in FIG. 3, read-out: binding constant
  Kd: 3000 nM
[7]; relative to parent taxol
  affinity in competition assays of intact cells, in words: three orders of magnitude below that of the parent taxol
[7]; relative to taxol
  lower specific binding affinity than taxol: approximately 1000 fold
[8]
  in vivo antitumor efficacy in words: produced tumor regression with a high percentage of animals being free of measurable tumor masses at the end of the experiments
[9]
  in vivo toxicity relative to taxol or taxotere: much less toxic in vivo than taxol or taxotere
[9]; mouse
  Toxicity: minimal toxicity
  lethality: no lethality
[10]
  half-life: 2.4 min
  recovery: 21%
[11]
  administered radioactivity in the combined urine and feces: 4-5%
[12]
  IC50: 0.25 nM
[13]
  IC50: 7.07 nM
[14]
  IC50: 1.94 nM
[15]
  IC50: 214 nM
[16]
  IC50: 3.78 nM
[17]
  IC50: 6.47 nM
[18]
  IC50: 152 nM
[19]
  IC50: 127 nM
[20]
  IC50: 12.8 nM
